Residue numbers refer to the chain shown, from its start.
How the values were obtained:
ACVRL1 = target: T1, ACVRL1 (Homo sapiens, UniProt P37023); assay: ThermoFisher (Lantha) kinase assay, inhibition of ACVRL1; type: biochemical; conditions: in vitro, NA = not active at 1 μM
T1 construct: purchased ThermoFisher

ACVR1 = target: T2, ACVR1 (Homo sapiens, UniProt Q04771); assay: ThermoFisher (Lantha) kinase assay, inhibition of ACVR1; type: biochemical; conditions: ThermoFisher Assay, in vitro
T2 construct: purchased ThermoFisher
T2 sequence (Q04771 21-509): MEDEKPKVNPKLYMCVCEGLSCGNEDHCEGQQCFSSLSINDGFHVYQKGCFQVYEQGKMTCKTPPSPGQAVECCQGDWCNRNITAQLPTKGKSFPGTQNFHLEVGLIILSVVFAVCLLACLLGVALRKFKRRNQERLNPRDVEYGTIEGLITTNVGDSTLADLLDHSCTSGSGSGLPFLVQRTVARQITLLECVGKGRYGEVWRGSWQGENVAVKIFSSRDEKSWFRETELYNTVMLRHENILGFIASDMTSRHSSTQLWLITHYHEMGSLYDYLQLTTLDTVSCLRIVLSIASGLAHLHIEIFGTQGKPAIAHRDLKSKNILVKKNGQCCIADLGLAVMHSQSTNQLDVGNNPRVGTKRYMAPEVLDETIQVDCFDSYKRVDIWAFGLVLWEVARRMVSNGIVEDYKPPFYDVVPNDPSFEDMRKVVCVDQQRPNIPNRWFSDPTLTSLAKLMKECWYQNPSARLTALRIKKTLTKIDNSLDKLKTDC

[1] = Metabolic stability in human liver microsomes; type: in vitro ADME; conditions: some cells add hours in brackets
Text: (§1) Exemplary compounds of the present disclosure have been evaluated for metabolic stability in mouse and human liver microsomes.

[2] = Metabolic stability in mouse liver microsomes; type: in vitro ADME; conditions: some cells add hours in brackets
Text: as §1

ACVR1^R206H = target: T3, ACVR1^R206H (Homo sapiens, UniProt Q04771, R206H); assay: Promega NanoBRET live-cell target engagement, ACVR1 (R206H); type: cell-based; conditions: in cellulo; NI = No inhibition at 40 μM
T3 sequence (Q04771 21-509 R206H): T2 sequence (Q04771 21-509) with R186H
Text: (§2) The Promega NanoBRET target engagement system involves cell-based competitive displacement of a fluorescent NanoBRET tracer bound reversibly to a NanoLuc fusion protein. Test compounds displace the tracer dependent on their affinity for the target and reduce […] the NanoBRET signal. […]

ACVR1^WT = target: T4, ACVR1^WT (Homo sapiens, UniProt Q04771); assay: Promega NanoBRET live-cell target engagement, ACVR1; type: cell-based; conditions: in cellulo; NI = No inhibition at 40 μM
T4 sequence (Q04771 21-509): T2 sequence (Q04771 21-509)
Text: as §2

T1 sequence (P37023 22-503): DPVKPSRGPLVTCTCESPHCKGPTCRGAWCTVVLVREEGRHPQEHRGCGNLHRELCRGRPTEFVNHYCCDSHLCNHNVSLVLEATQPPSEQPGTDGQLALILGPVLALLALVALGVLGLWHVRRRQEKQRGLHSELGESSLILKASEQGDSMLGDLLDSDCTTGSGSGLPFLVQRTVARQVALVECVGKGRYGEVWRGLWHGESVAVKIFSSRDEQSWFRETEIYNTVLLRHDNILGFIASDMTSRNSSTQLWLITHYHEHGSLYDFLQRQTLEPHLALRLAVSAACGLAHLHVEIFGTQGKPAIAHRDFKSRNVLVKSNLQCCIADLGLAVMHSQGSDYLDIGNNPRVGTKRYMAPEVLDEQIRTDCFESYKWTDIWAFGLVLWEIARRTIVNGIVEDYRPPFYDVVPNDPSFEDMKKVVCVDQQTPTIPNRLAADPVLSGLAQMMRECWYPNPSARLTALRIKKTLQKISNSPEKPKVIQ

With “1-cyclopropyl-N-(3-(4-(2,3-dimethylphenyl)piperazin-1-yl)propyl)-2-(3,4,5-trimethoxyphenyl)-1H-benzo[d]imidazole-6-carboxamide [CDD-2468]” the IC50 (ACVRL1) was 4050 nM and the IC50 (ACVR1) was 135 nM.
In the case of `CNC(=O)[C@H]1CC[C@H](n2c(-c3cc(I)c(OC)c(OC)c3)nc3ccc(C(=O)NCCCN4CCN(c5ccccc5)CC4)cc32)C1` [CDD-2205, 2-(3-iodo-4,5-dimethoxyphenyl)-1-((1S,3S)-3-(methylcarbamoyl)cyclopentyl)-N-(3-(4-phenylpiperazin-1-yl)propyl)-1H-benzo[d]imidazole-6-carboxamide], the IC50 (ACVRL1) is reported as 14.8 nM and the IC50 (ACVR1) is reported as 3.7 nM.
Work on `CNC(=O)[C@H]1CC[C@H](n2c(-c3cc(OC)c(OC)c(OC)c3)nc3ccc(C(=O)NCCCN4CCN(c5ccccc5)CC4)cc32)C1` [CDD-2206, 1-((1S,3S)-3-(methylcarbamoyl)cyclopentyl)-N-(3-(4-phenylpiperazin-1-yl)propyl)-2-(3,4,5-trimethoxyphenyl)-1H-benzo[d]imidazole-6-carboxamide] yielded an IC50 (ACVRL1) of 26.9 nM and an IC50 (ACVR1) of 5.3 nM.
In the case of `CNC(=O)[C@H]1CC[C@H](n2c(-c3cc(OC)c(OC)c(OC)c3)nc3ccc(C(=O)NC4COc5ccc(Cl)cc54)cc32)C1` (stereo partly drawn) [CDD-2233, N-(5-chloro-2,3-dihydrobenzofuran-3-yl)-1-((1S,3S)-3-(methylcarbamoyl)cyclopentyl)-2-(3,4,5-trimethoxyphenyl)-1H-benzo[d]imidazole-6-carboxamide], the IC50 (ACVRL1) is reported as 20.1 nM and the IC50 (ACVR1) is reported as 19.9 nM.
In the case of `CNC(=O)[C@H]1C[C@H](n2c(-c3cc(OC)c(OC)c(OC)c3)nc3ccc(C(=O)NCCCN4CCN(c5ccccc5)CC4)cc32)C1` [CDD-2235, 1-((1r,3r)-3-(methylcarbamoyl)cyclobutyl)-N-(3-(4-phenylpiperazin-1-yl)propyl)-2-(3,4,5-trimethoxyphenyl)-1H-benzo[d]imidazole-6-carboxamide], the “Metabolism HLM” value [1] is reported as 9.7 min and the “Metabolism MLM” value [2] is reported as 5.7 min.
`COc1cc(-c2nc3ccc(C(=O)NCCCN4CCN(c5ccccc5)CC4)cc3[nH]2)cc(OC)c1OC` [CDD-2236, N-(3-(4-phenylpiperazin-1-yl)propyl)-2-(3,4,5-trimethoxyphenyl)-1H-benzo[d]imidazole-6-carboxamide] showed an IC50 (ACVRL1) of 534 nM and an IC50 (ACVR1) of 65.6 nM.
Work on `CNC(=O)[C@H]1C[C@H](n2c(-c3cc(OC)c(OC)c(OC)c3)nc3ccc(C(=O)NCCCN4CCN(c5cccc(C)c5C)CC4)cc32)C1` [CDD-2341, N-(3-(4-(2,3-dimethylphenyl)piperazin-1-yl)propyl)-1-((1r,3r)-3-(methylcarbamoyl)cyclobutyl)-2-(3,4,5-trimethoxyphenyl)-1H-benzo[d]imidazole-6-carboxamide] yielded an IC50 (ACVRL1) of 12.3 nM and an IC50 (ACVR1) of 3.6 nM.
In the case of `COc1cc(-c2nc3ccc(C(=O)NCCC(=O)N4CCN(c5cccc(C)c5C)CC4)cc3n2C2CCC2)cc(OC)c1OC` [CDD-2467, 1-cyclobutyl-N-(3-(4-(2,3-dimethylphenyl)piperazin-1-yl)-3-oxopropyl)-2-(3,4,5-trimethoxyphenyl)-1H-benzo[d]imidazole-6-carboxamide], the “Metabolism HLM” value [1] is reported as 13.6 min and the “Metabolism MLM” value [2] is reported as 9.3 min.
Molecule `COc1cc(OC)cc(-c2nc3ccc(C(=O)NCCCN4CCN(c5cccc(C)c5C)CC4)cc3n2C2CCC2)c1` [CDD-2469, 1-cyclobutyl-2-(3,5-dimethoxyphenyl)-N-(3-(4-(2,3-dimethylphenyl)piperazin-1-yl)propyl)-1H-benzo[d]imidazole-6-carboxamide] has an IC50 (ACVR1^R206H) of 4450 nM and an IC50 (ACVR1^WT) of 4720 nM.
For `COc1ccc(-c2cccc(-c3nc4ccc(C(=O)NCCCN(C)C)cc4n3C3CCC3)n2)cc1` [CDD-2620, 1-cyclobutyl-N-(3-(dimethylamino)propyl)-2-(6-(4-methoxyphenyl)pyridin-2-yl)-1H-benzo[d]imidazole-6-carboxamide], the IC50 (ACVRL1) was > 1000 nM.
With `CN(C)CCCNC(=O)c1ccc2nc(-c3cccc(-c4ccccc4)c3)n(C3CCC3)c2c1` [CDD-2621, 2-([1,1′-biphenyl]-3-yl)-1-cyclobutyl-N-(3-(dimethylamino)propyl)-1H-benzo[d]imidazole-6-carboxamide] the IC50 (ACVRL1) was > 1000 nM.
`CNC(=O)[C@@H]1CC[C@@H](n2c(-c3cc(OC)c(OC)c(OC)c3)nc3ccc(C(=O)NCCCN4CCN(c5ccccc5)CC4)cc32)C1` [CDD-2622, 1-((1R,3R)-3-(methylcarbamoyl)cyclopentyl)-N-(3-(4-phenylpiperazin-1-yl)propyl)-2-(3,4,5-trimethoxyphenyl)-1H-benzo[d]imidazole-6-carboxamide] showed an IC50 (ACVRL1) of 11.5 nM and an IC50 (ACVR1) of 5.7 nM.
For `CN(C)CCCNC(=O)c1ccc2nc(-c3cncc4ccccc34)n(C3CCC3)c2c1` [CDD-2623, 1-cyclobutyl-N-(3-(dimethylamino)propyl)-2-(isoquinolin-4-yl)-1H-benzo[d]imidazole-6-carboxamide], the IC50 (ACVRL1) was > 1000 nM.
`CNC(=O)[C@H]1C[C@H](n2c(-c3cc(F)cc(OC)c3)nc3ccc(C(=O)NCCCN(C)C)cc32)C1` [CDD-2682, N-(3-(dimethylamino)propyl)-2-(3-fluoro-5-methoxyphenyl)-1-((1r,3r)-3-(methylcarbamoyl)cyclobutyl)-1H-benzo[d]imidazole-6-carboxamide] gave an IC50 (ACVRL1) of 407 nM and an IC50 (ACVR1) of 87.1 nM.
`CNC(=O)[C@H]1C[C@H](n2c(-c3ccc(F)c(OC)c3)nc3ccc(C(=O)NCCCN(C)C)cc32)C1` [CDD-2683, N-(3-(dimethylamino)propyl)-2-(4-fluoro-3-methoxyphenyl)-1-((1r,3r)-3-(methylcarbamoyl)cyclobutyl)-1H-benzo[d]imidazole-6-carboxamide] showed an IC50 (ACVRL1) of 190 nM and an IC50 (ACVR1) of 77.4 nM.
`CNC(=O)[C@H]1C[C@H](n2c(-c3cccc(OC)c3)nc3ccc(C(=O)NCCCN(C)C)cc32)C1` [CDD-2684, N-(3-(dimethylamino)propyl)-2-(3-methoxyphenyl)-1-((1r,3r)-3-(methylcarbamoyl)cyclobutyl)-1H-benzo[d]imidazole-6-carboxamide] gave an IC50 (ACVRL1) of 197 nM and an IC50 (ACVR1) of 84 nM.
`CNC(=O)[C@H]1C[C@H](n2c(-c3ccc(OC)c(OC)c3)nc3ccc(C(=O)NCCCN(C)C)cc32)C1` [CDD-2685, 2-(3,4-dimethoxyphenyl)-N-(3-(dimethylamino)propyl)-1-((1r,3r)-3-(methylcarbamoyl)cyclobutyl)-1H-benzo[d]imidazole-6-carboxamide] gave an IC50 (ACVRL1) of 390 nM and an IC50 (ACVR1) of 121 nM.
Molecule `COc1cc(-c2nc3ccc(C(=O)NCCCN4CCN(C)C(c5ccccc5)C4)cc3n2C2CCC2)cc(OC)c1OC` (stereo not shown) [CDD-2793, 1-cyclobutyl-N-(3-(4-methyl-3-phenylpiperazin-1-yl)propyl)-2-(3,4,5-trimethoxyphenyl)-1H-benzo[d]imidazole-6-carboxamide] has an IC50 (ACVR1^R206H) of 4280 nM and an IC50 (ACVR1^WT) of 2720 nM.
Work on `COc1cc(-c2nc3ccc(C(=O)NCCN4CCN(C5CCCCC5)CC4)cc3n2C2CCC2)cc(OC)c1OC` [CDD-2794, 1-cyclobutyl-N-(2-(4-cyclohexylpiperazin-1-yl)ethyl)-2-(3,4,5-trimethoxyphenyl)-1H-benzo[d]imidazole-6-carboxamide] yielded an IC50 (ACVR1^R206H) of 3160 nM and an IC50 (ACVR1^WT) of 2090 nM.
Molecule `COc1cc(-c2nc3ccc(C(=O)NCC4(O)CCN(Cc5ccccc5)CC4)cc3n2C2CCC2)cc(OC)c1OC` [CDD-2795, N-((1-benzyl-4-hydroxypiperidin-4-yl)methyl)-1-cyclobutyl-2-(3,4,5-trimethoxyphenyl)-1H-benzo[d]imidazole-6-carboxamide] has an IC50 (ACVR1^R206H) of 459 nM and an IC50 (ACVR1^WT) of 387 nM.
